{"source": "paper PMC5789083", "about": "“Mechanisms driving the antibacterial and antibiofilm properties of Hp1404 and its analogue peptides against multidrug-resistant Pseudomonas aeruginosa” (Scientific Reports, 2018)", "key": {"[1]": {"tested_on": "P. aeruginosa 1034 biofilm", "test": "LIVE/DEAD BacLight (SYTO9/PI) staining of biofilms", "format": "cell-based, Pseudomonas aeruginosa", "details": "even at 400 µM; P. aeruginosa 1034, 24 h, 37 °C", "experimental": "Visualization of the remaining bacteria in the biofilm was achieved using the LIVE/DEAD BacLight Bacterial Viability Kit (Molecular Probes, Eugene, OR, USA), and an IX71 inverted fluorescence microscope (Olympus, Tokyo, Japan) was used for observation[58],[59]. Briefly, bacterial suspensions (5 × 10^5 CFU/mL) were incubated with 0.5× MBIC or 1× MBIC of the peptides, for 24 h at 37 °C. Following incubation, biofilms were stained with pre-mixed dye (SYTO-9 and propidium iodide) for 30 min in the dark; images were obtained using the aforementioned microscope."}, "P. aeruginosa 1034": {"tested_on": "P. aeruginosa 1034", "format": "in vivo", "details": "BALB/c mice, intradermal P. aeruginosa 1034", "experimental": "BALB/c mice (6 weeks old) were used in this study. The mice were shaved and intradermally injected with 20 µl of P. aeruginosa (1 × 10^8 CFU/ml) in PBS."}, "[2]": {"tested_on": "P. aeruginosa strains (biofilm formation)", "format": "cell-based, Pseudomonas aeruginosa", "details": "24 h, 37 °C, crystal violet OD595", "experimental": "To evaluate the ability of bacterial strains to form biofilms either in the absence or presence of peptides, antibiotic-susceptible P. aeruginosa (ATCC 27853), and various strains of MDR P. aeruginosa were cultured in nutrient broth (NB). […]. The biofilms were fixed with 100% methanol for 15 min, stained with 0.1% crystal violet (CV) for 1 h, and rinsed three times with distilled water (dH2O). After the addition of 95% ethanol, biofilm mass was quantified by measuring OD at 595 nm using a Versa-Max microplate ELISA reader (Molecular Devices). Results were expressed as the percentage of biofilm formed with respect to the control. […] All experiments were performed at least in triplicate."}, "[3]": {"tested_on": "Pseudomonas aeruginosa and MRPA strains", "test": "microbe, parasite or virus in culture", "format": "cell-based", "details": "broth micro-dilution, 37 °C, 18–24 h", "source_text": "Gram-negative (Pseudomonas aeruginosa ATCC 27853) bacterial strains were obtained from the ATCC (American Type Culture Collection; Manassas, VA, USA). Multidrug-resistant strains (Pseudomonas aeruginosa 138, 431, 434, 557, 559, 778, 1034, 1162, 3290, 3399, 3592, 3904, 4007, 4319, 4891, 5018, and 671973) were obtained from the Chonnam National University Hospital (Gwangju, South Korea).\nWe examined the activity of each peptide against both pseudomonas aeruginosa and multidrug-resistant strains. The minimal inhibitory concentrations (MICs) of peptides were determined using the broth micro-dilution assay as described previously. Briefly, bacterial strains were cultivated with shaking overnight at 37 °C. The next day, they were diluted to a density of 2 × 10^5 CFU/mL with growth medium. Peptides were serially diluted with 10 mM sodium phosphate buffer. 50 µL bacterial aliquots were mixed with an equal volume of peptide solution, and incubated at 37 °C for 18–24 h. Inhibition of bacterial growth was determined by measuring the absorbance at 600 nm using a Versa Max microplate reader (Molecular Devices, Sunnyvale, CA, USA). The test was performed in triplicate."}, "HaCaT cells": {"tested_on": "HaCaT cells", "test": "Cytotoxicity, MTT assay", "format": "cell-based, human", "details": "3.13 µM, 24 h", "experimental": "We used the MTT assay to evaluate the toxicity of the peptides toward human skin epithelial cells (HaCaT) as previously described. Briefly, HaCaT cells were seeded at a density of 2 × 10^4 cells per well in 96-well microtiter plates in Dulbecco’s modified Eagle’s medium (DMEM) containing 10% foetal bovine serum (FBS) at 37 °C under 5% CO2 atmosphere. The next day, peptides were added to each well at various final concentrations (higher concentration of 200 µM). After 24 h incubation, culture supernatants were removed. 0.5 mg/mL MTT was added to each well, and the plates were incubated for 4 h at 37 °C. The medium was replaced by dimethyl sulfoxide (DMSO) to dissolve the formazan crystals formed in the wells. The absorbance at 570 nm was measured using a Versa-Max microplate ELISA reader (Molecular Devices). The viability rate was calculated using the following formula: Cell viability (%) = (absorbance of treated sample)/(absorbance of control) × 100."}, "mouse red blood cells": {"tested_on": "mouse red blood cells", "test": "Hemolytic activity", "format": "cell-based", "details": "at 12.5 M (so in the source); mouse RBCs, positive control", "experimental": "The hemolytic activities of the peptides were determined as previously described. Fresh mouse red blood cells (RBCs) were washed and diluted to 8% with PBS. RBC suspension was added to 96-well plates (100 µL/well), mixed with an equal volume of serially diluted peptides, and incubated at 37 °C for 1 h with gentle shaking. The plate was centrifuged and the supernatant was transferred to a 96-well plate. The absorbance at 414 nm was measured with a Versa-Max ELISA reader (Molecular Devices). PBS and 0.1% Triton X-100 were used as negative and positive controls, respectively. The experiment was performed in triplicate. The hemolysis rate was calculated using the following formula[55]: % Hemolysis = [(Abs 414 nm in the peptide solution-Abs 414 nm in PBS)/(Abs 414 nm in 0.1% Triton X-100-Abs 414 nm in PBS)] × 100"}}, "note": "Where two headings read alike, the source gives them in different places."}
{"smiles": "O=C(O)c1cn(C2CC2)c2cc(N3CCNCC3)c(F)cc2c1=O", "note": "[Ciprofloxacin, ciprofloxacin, reference compound]", "values": [{"measurement": "biofilm formation by the MRPA strain (live/dead staining)", "setting": "[1]", "result": "did not inhibit biofilm formation"}, {"measurement": "killing of bacteria in infected skin", "setting": "P. aeruginosa 1034; day 7", "result": "did not kill the bacteria"}, {"measurement": "decrease in number of colonies", "setting": "P. aeruginosa 1034; until 4 days", "result": "about 60%"}, {"measurement": "MBIC", "setting": "[2]; P. aeruginosa 434", "result": ">400", "unit": "µM"}, {"measurement": "MBIC", "setting": "[2]; P. aeruginosa 559", "result": ">400", "unit": "µM"}, {"measurement": "MBIC", "setting": "[2]; P. aeruginosa 778", "result": ">400", "unit": "µM"}, {"measurement": "MBIC", "setting": "[2]; P. aeruginosa 1034", "result": ">400", "unit": "µM"}, {"measurement": "MBIC", "setting": "[2]; P. aeruginosa 1162", "result": ">400", "unit": "µM"}, {"measurement": "MBIC", "setting": "[2]; P. aeruginosa 3399", "result": ">400", "unit": "µM"}, {"measurement": "MBIC", "setting": "[2]; P. aeruginosa 3543", "result": ">400", "unit": "µM"}, {"measurement": "MBIC", "setting": "[2]; P. aeruginosa 4007", "result": ">400", "unit": "µM"}, {"measurement": "MIC", "setting": "[3]; Pseudomonas aeruginosa, ATCC27853, P. aeruginosa ATCC 27853, 2 × 10^5 CFU/mL, A600, triplicate", "result": 1.56, "unit": "µM"}, {"measurement": "MIC", "setting": "[3]; Pseudomonas aeruginosa, P. aeruginosa 138 (multidrug-resistant), triplicate", "result": "> 400", "unit": "µM"}, {"measurement": "MIC", "setting": "[3]; Pseudomonas aeruginosa, P. aeruginosa 431 (multidrug-resistant), triplicate", "result": "> 400", "unit": "µM"}, {"measurement": "MIC", "setting": "[3]; Pseudomonas aeruginosa, P. aeruginosa 434 (multidrug-resistant), triplicate", "result": "> 400", "unit": "µM"}, {"measurement": "MIC", "setting": "[3]; Pseudomonas aeruginosa, P. aeruginosa 557 (multidrug-resistant), triplicate", "result": "> 400", "unit": "µM"}, {"measurement": "MIC", "setting": "[3]; Pseudomonas aeruginosa, P. aeruginosa 559 (multidrug-resistant), triplicate", "result": "> 400", "unit": "µM"}, {"measurement": "MIC", "setting": "[3]; Pseudomonas aeruginosa, P. aeruginosa 778 (multidrug-resistant), triplicate", "result": "> 400", "unit": "µM"}, {"measurement": "MIC", "setting": "[3]; Pseudomonas aeruginosa, P. aeruginosa 1034 (multidrug-resistant), triplicate", "result": "> 400", "unit": "µM"}, {"measurement": "MIC", "setting": "[3]; Pseudomonas aeruginosa, P. aeruginosa 1162 (multidrug-resistant), triplicate", "result": "> 400", "unit": "µM"}, {"measurement": "MIC", "setting": "[3]; Pseudomonas aeruginosa, P. aeruginosa 3290 (multidrug-resistant), triplicate", "result": "> 400", "unit": "µM"}, {"measurement": "MIC", "setting": "[3]; Pseudomonas aeruginosa, P. aeruginosa 3399 (multidrug-resistant), triplicate", "result": "> 400", "unit": "µM"}, {"measurement": "MIC", "setting": "[3]; Pseudomonas aeruginosa, P. aeruginosa 3543 (multidrug-resistant), triplicate", "result": 400, "unit": "µM"}, {"measurement": "MIC", "setting": "[3]; Pseudomonas aeruginosa, P. aeruginosa 3592 (multidrug-resistant), triplicate", "result": "> 400", "unit": "µM"}, {"measurement": "MIC", "setting": "[3]; Pseudomonas aeruginosa, P. aeruginosa 3904 (multidrug-resistant), triplicate", "result": 400, "unit": "µM"}, {"measurement": "MIC", "setting": "[3]; Pseudomonas aeruginosa, P. aeruginosa 4007 (multidrug-resistant), triplicate", "result": "> 400", "unit": "µM"}, {"measurement": "MIC", "setting": "[3]; Pseudomonas aeruginosa, P. aeruginosa 4319 (multidrug-resistant), triplicate", "result": "> 400", "unit": "µM"}, {"measurement": "MIC", "setting": "[3]; Pseudomonas aeruginosa, P. aeruginosa 4891 (multidrug-resistant), triplicate", "result": "> 400", "unit": "µM"}, {"measurement": "MIC", "setting": "[3]; Pseudomonas aeruginosa, P. aeruginosa 5018 (multidrug-resistant), triplicate", "result": "> 400", "unit": "µM"}, {"measurement": "MIC", "setting": "[3]; Pseudomonas aeruginosa, P. aeruginosa 671973 (multidrug-resistant), triplicate", "result": 100, "unit": "µM"}]}
{"smiles": "CC[C@H](C)[C@H](NC(=O)CN)C(=O)NCC(=O)N[C@@H](C)C(=O)N[C@H](C(=O)N[C@@H](CC(C)C)C(=O)N[C@@H](CCCCN)C(=O)N[C@H](C(=O)N[C@@H](CC(C)C)C(=O)N[C@H](C(=O)N[C@H](C(=O)NCC(=O)N[C@@H](CC(C)C)C(=O)N1CCC[C@H]1C(=O)N[C@@H](C)C(=O)N[C@@H](CC(C)C)C(=O)N[C@H](C(=O)N[C@@H](CO)C(=O)N[C@@H](Cc1c[nH]c2ccccc12)C(=O)N[C@H](C(=O)N[C@@H](CCCCN)C(=O)N[C@@H](CCCNC(=N)N)C(=O)N[C@@H](CCCCN)C(=O)N[C@@H](CCCNC(=N)N)C(=O)N[C@@H](CCC(N)=O)C(=O)N[C@@H](CCC(N)=O)C(N)=O)[C@@H](C)CC)[C@@H](C)CC)[C@@H](C)O)[C@@H](C)O)C(C)C)C(C)C", "note": "[Melittin, reference compound]", "values": [{"measurement": "survival of HaCaT cells", "setting": "HaCaT cells", "result": "no living cells were detected"}, {"measurement": "MIC", "setting": "[3]; P. aeruginosa 138 (multidrug-resistant), triplicate", "result": 3.13, "unit": "µM"}, {"measurement": "MIC", "setting": "[3]; P. aeruginosa 431 (multidrug-resistant), triplicate", "result": 3.13, "unit": "µM"}, {"measurement": "MIC", "setting": "[3]; P. aeruginosa 434 (multidrug-resistant), triplicate", "result": 3.13, "unit": "µM"}, {"measurement": "MIC", "setting": "[3]; P. aeruginosa 557 (multidrug-resistant), triplicate", "result": 1.56, "unit": "µM"}, {"measurement": "MIC", "setting": "[3]; P. aeruginosa 559 (multidrug-resistant), triplicate", "result": 3.13, "unit": "µM"}, {"measurement": "MIC", "setting": "[3]; P. aeruginosa 778 (multidrug-resistant), triplicate", "result": 3.13, "unit": "µM"}, {"measurement": "MIC", "setting": "[3]; P. aeruginosa 1034 (multidrug-resistant), triplicate", "result": 1.56, "unit": "µM"}, {"measurement": "MIC", "setting": "[3]; P. aeruginosa 1162 (multidrug-resistant), triplicate", "result": 3.13, "unit": "µM"}, {"measurement": "MIC", "setting": "[3]; P. aeruginosa 3290 (multidrug-resistant), triplicate", "result": 3.13, "unit": "µM"}, {"measurement": "MIC", "setting": "[3]; P. aeruginosa 3399 (multidrug-resistant), triplicate", "result": 3.13, "unit": "µM"}, {"measurement": "MIC", "setting": "[3]; P. aeruginosa 3543 (multidrug-resistant), triplicate", "result": 3.13, "unit": "µM"}, {"measurement": "MIC", "setting": "[3]; P. aeruginosa 3592 (multidrug-resistant), triplicate", "result": 3.13, "unit": "µM"}, {"measurement": "MIC", "setting": "[3]; P. aeruginosa 3904 (multidrug-resistant), triplicate", "result": 3.13, "unit": "µM"}, {"measurement": "MIC", "setting": "[3]; P. aeruginosa 4007 (multidrug-resistant), triplicate", "result": 3.13, "unit": "µM"}, {"measurement": "MIC", "setting": "[3]; P. aeruginosa 4319 (multidrug-resistant), triplicate", "result": 3.13, "unit": "µM"}, {"measurement": "MIC", "setting": "[3]; P. aeruginosa 4891 (multidrug-resistant), triplicate", "result": 1.56, "unit": "µM"}, {"measurement": "MIC", "setting": "[3]; P. aeruginosa 5018 (multidrug-resistant), triplicate", "result": 3.13, "unit": "µM"}, {"measurement": "MIC", "setting": "[3]; P. aeruginosa 671973 (multidrug-resistant), triplicate", "result": 1.56, "unit": "µM"}, {"measurement": "MIC", "setting": "[3]; P. aeruginosa ATCC 27853, 2 × 10^5 CFU/mL, A600, triplicate", "result": 3.13, "unit": "µM"}, {"measurement": "hemolysis", "setting": "mouse red blood cells", "result": "complete hemolysis"}]}
